The values that follow come from US20240109915A1, “NOVEL ACC INHIBITORS” (Pfizer Inc., priority 2022, published 2024).

The IC50 is the concentration that gives 50% inhibition.

This assay has as its target recombinant human ACC1 (rhACC1) (Homo sapiens (Human), UniProt Q13085). Description: Transcreener ADP detection FP assay, direct inhibition of rhACC1. Format: biochemical. Particulars: Geomean IC50, n ≥ 2 unless * then n = 1; 50 μM ATP, 30 μM acetyl-CoA. On the procedure:
The direct inhibition of ACC1 for the compounds of the present invention was determined using preparations of recombinant human ACC1 (rhACC1) (SEQ ID NO. 1)
Two liters of SF9 cells, infected with recombinant baculovirus containing full length human ACC1 cDNA, were suspended in ice-cold lysis buffer (25 mM Tris, pH 7.5; 150 mM NaCl; 10% glycerol; 5 mM imidazole (EMD Bioscience; Gibbstown, NJ); 2 mM TCEP (BioVectra; Charlottetown, Canada); Benzonase nuclease (10000 U/100 g cell paste; Novagen; Madison, WI); EDTA-free protease inhibitor cocktail (1 tab/50 ml; Roche Diagnostics; Mannheim, Germany). Cells were lysed by 3 cycles of freeze-thaw and centrifuged at 40,000×g for 40 minutes (4° C.). Supernatant was directly loaded onto a HisTrap FF crude column (GE Healthcare; Piscataway, NJ) and eluted with an imidazole gradient up to 0.5 M over 20 column volumes (CV). ACC1-containing fractions were pooled and diluted 1:5 with 25 mM Tris, pH 7.5, 2 mM TCEP, 10% glycerol and direct loaded onto a CaptoQ (GE Healthcare) column and eluted with an NaCl gradient up to 1 M over 20 CV's. Phosphate groups were removed from purified ACC1 by incubation with lambda phosphatase (100 U/10 μM target protein; New England Biolabs; Beverly, MA) for 14 hours at 4° C.; okadaic acid was added (1 μM final concentration; Roche Diagnostics) to inhibit the phosphatase. Purified ACC1 was exchanged into 25 mM Tris, pH 7.5, 2 mM TCEP, 10% glycerol, 0.5 M NaCl by 6 hour dialysis at 4° C. Aliquots were prepared and frozen at −80° C.
Measurement of rhACC1 Inhibition rhACC1 was assayed in a Corning #3820 (Corning, Tewksbury, MA) 384-well plate using the Transcreener ADP detection FP assay kit (Bellbrook Labs, Madison, Wisconsin) using the manufacturer's recommended conditions for a 50 μM ATP reaction. The final conditions for the assay were 50 mM HEPES, pH 7.2, 10 mM MgCl2, 7.5 mM tripotassium citrate, 2 mM DTT, 0.1 mg/mL BSA, 30 μM acetyl-CoA, 50 μM ATP, and 10 mM KHCO3. Typically, a […] was run for 60 min at room temp, and 10 μl of Transcreener stop and detect buffer was added and the combination incubated at room temp for an overnight (18 hours). The data was acquired on an Envision Fluorescence reader (PerkinElmer) using a 620 excitation Cy5 FP general dual mirror, 620 excitation Cy5 FP filter, 688 emission (S) and a 688 (P) emission filter.
As for `CC(C)(C)c1nc2c(s1)CC1(CCN(C(=O)c3ccc4ccc(NC5CCC5)nc4c3)CC1)CC2=O` [Example 31, 2-(tert-butyl)-1′-(2-(cyclobutylamino)quinoline-7-carbonyl)-5H-spiro[benzo[d]thiazole-6,4′-piperidin]-4(7H)-one], the IC50 amounted to 4 nM.

As for `CCNc1ccc2ccc(C(=O)N3CCC4(CC3)CC(=O)c3nc(C(C)(C)C)sc3C4)cc2n1` [Example 32, 2-(tert-butyl)-1′-(2-(ethylamino)quinoline-7-carbonyl)-5H-spiro[benzo[d]thiazole-6,4′-piperidin]-4(7H)-one], the half-maximal inhibitory concentration (IC50) amounted to 3.5 nM.

Take `Cc1cc(C(=O)N2CCC3(CC2)CC(=O)c2nc(C(C)(C)C)sc2C3)c2[nH]ncc2c1Cl` [Example 34, 2-(tert-butyl)-1′-(4-chloro-5-methyl-1H-indazole-7-carbonyl)-5H-spiro[benzo[d]thiazole-6,4′-piperidin]-4(7H)-one]: the IC50 was found to be 1.3 nM.

Turning to `Cc1cc(C(=O)N2CCC3(CC2)CC(=O)c2nc(C(C)(C)C)sc2C3)c2[nH]ncc2c1C` [Example 35, 2-(tert-butyl)-1′-(4,5-dimethyl-1H-indazole-7-carbonyl)-5H-spiro[benzo[d]thiazole-6,4′-piperidin]-4(7H)-one], the IC50 was 2.6 nM.

On to `COc1c(C)cc(C(=O)N2CCC3(CC2)CC(=O)c2nc(C(C)(C)C)sc2C3)c2[nH]ncc12` [Example 36, 2-(tert-butyl)-1′-(4-methoxy-5-methyl-1H-indazole-7-carbonyl)-5H-spiro[benzo[d]thiazole-6,4′-piperidin]-4(7H)-one], for which the concentration for half-maximal inhibition (IC50) was determined as 23.2 nM.

With `CCNc1ccc2c(C)cc(C(=O)N3CCC4(CC3)CC(=O)c3nc(C(C)(C)C)sc3C4)cc2n1` [Example 39, 2-(tert-butyl)-1′-(2-(ethylamino)-5-methylquinoline-7-carbonyl)-5H-spiro[benzo[d]thiazole-6,4′-piperidin]-4(7H)-one], the IC50 amounted to 6.4 nM.

Turning to `CNc1ccc2c(OC)cc(C(=O)N3CCC4(CC3)CC(=O)c3nc(C(C)(C)C)sc3C4)cc2n1` [Example 40, 2-(tert-butyl)-1′-(5-methoxy-2-(methylamino)quinoline-7-carbonyl)-5H-spiro[benzo[d]thiazole-6,4′-piperidin]-4(7H)-one], the IC50 amounted to 1.5 nM.

Consider `COc1ccnc2c(C)cc(C(=O)N3CCC4(CC3)CC(=O)c3nc(C(C)(C)C)sc3C4)cc12` [Example 41, 2-(tert-butyl)-1′-(4-methoxy-8-methylquinoline-6-carbonyl)-5H-spiro[benzo[d]thiazole-6,4′-piperidin]-4(7H)-one], for which the IC50 worked out at 15.3 nM.

For the molecule `COc1cc(C(=O)N2CCC3(CC2)CC(=O)c2nc(C(C)(C)C)sc2C3)cc2c(OC)cncc12` [Example 43, 2-(tert-butyl)-1′-(4,8-dimethoxyisoquinoline-6-carbonyl)-5H-spiro[benzo[d]thiazole-6,4′-piperidin]-4(7H)-one], the IC50 stood at 5.2 nM.

For the molecule `Cc1n[nH]c2c(C)cc(C(=O)N3CCC4(CC3)CC(=O)c3nc(C(C)(C)C)sc3C4)cc12` [Example 45], the IC50 is 7.6 nM.

`COc1nccc2ccc(C(=O)N3CCC4(CC3)CC(=O)c3nc(C(C)(C)C)sc3C4)cc12` [Example 46]: the IC50 was determined as 85.9 nM.

In the case of `Cc1cc(C(=O)N2CCC3(CC2)CC(=O)c2nc(C(C)(C)C)sc2C3)cc2cccnc12` [Example 48], the IC50 came to 10000 nM.

In the case of `COc1cc(C(=O)N2CCC3(CC2)CC(=O)c2nc(C(C)(C)C)sc2C3)cc2c(C)n[nH]c12` [Example 49], the IC50 was found to be 6.4 nM.

Regarding `Cc1cc(C(=O)N2CCC3(CC2)CC(=O)c2nc(C(C)(C)C)sc2C3)cc2c(Cl)n[nH]c12` [Example 50], the IC50 was 5.4 nM.

Turning to `Cc1c[nH]c2cc(C(=O)N3CCC4(CC3)CC(=O)c3nc(C(C)(C)C)sc3C4)ccc12` [Example 51], the IC50 came out at 22.4 nM.

With `Cc1cc(C(=O)N2CCC3(CC2)CC(=O)c2nc(C(C)(C)C)sc2C3)c(O)c2ccccc12` [Example 52], the IC50 was 2.4 nM.

Regarding `CNc1cc2ccccc2cc1C(=O)N1CCC2(CC1)CC(=O)c1nc(C(C)(C)C)sc1C2` [Example 53], the IC50 is 18.1 nM.

With `Cc1ccc(C)c2[nH]c(C(=O)N3CCC4(CC3)CC(=O)c3nc(C(C)(C)C)sc3C4)cc12` [Example 55], the IC50 was determined as 3.5 nM.

As for `COc1ccc(C)c2[nH]c(C(=O)N3CCC4(CC3)CC(=O)c3nc(C(C)(C)C)sc3C4)cc12` [Example 56], the IC50 was found to be 5.8 nM.

Take `CC(C)(C)c1nc2c(s1)CC1(CCN(C(=O)c3cc(O)c4ccccc4c3)CC1)CC2=O` [Example 57]: the IC50 came out at 19.7 nM.

With `COc1ccc2ccc(C(=O)N3CCC4(CC3)CC(=O)c3nc(C(C)(C)C)sc3C4)cc2c1` [Example 58], the IC50 was found to be 7.1 nM.

`COc1cccc2cc(C(=O)N3CCC4(CC3)CC(=O)c3nc(C(C)(C)C)sc3C4)[nH]c12` [Example 60]: the IC50 was determined as 27.3 nM.

On to `Cc1cc(C(=O)N2CCC3(CC2)CC(=O)c2nc(C(C)(C)C)sc2C3)cc2[nH]ccc12` [Example 62], for which the IC50 turned out to be 3.6 nM.

For `CC(C)(C)c1nc2c(s1)CC1(CCN(C(=O)c3ccc4ccccc4c3O)CC1)CC2=O` [Example 63], the IC50 was determined as 19.7 nM.

Turning to `Cc1c[nH]c2ccc(C(=O)N3CCC4(CC3)CC(=O)c3nc(C(C)(C)C)sc3C4)cc12` [Example 64], the IC50 worked out at 11.8 nM.

As for `CC(C)(C)c1nc2c(s1)CC1(CCN(C(=O)c3ccc4[nH]cc(Cl)c4c3)CC1)CC2=O` [Example 65], the IC50 came to 13 nM.

As for `COc1cccc2ncc(C(=O)N3CCC4(CC3)CC(=O)c3nc(C(C)(C)C)sc3C4)cc12` [Example 66], the IC50 is 115 nM.

As to `CN(C)c1cc(C(=O)N2CCC3(CC2)CC(=O)c2nc(C(C)(C)C)sc2C3)cc(-c2ccccc2)n1` [Example 68], the 50% inhibitory concentration (IC50) is 3.9 nM.

For the molecule `COc1cc(C(=O)N2CCC3(CC2)CC(=O)c2nc(C(C)(C)C)sc2C3)cc(-c2ccccc2)n1` [Example 69], the IC50 is 16.1 nM.

`CC(C)(C)Nc1ccc2ccc(C(=O)N3CCC4(CC3)CC(=O)c3nc(C(C)(C)C)sc3C4)cc2n1` [Example 70]: the IC50 is 4.6 nM.

As to `CNc1cc(C(=O)N2CCC3(CC2)CC(=O)c2nc(C(C)(C)C)sc2C3)cc(-c2ccccc2)n1` [Example 71], the IC50 was determined as 13.6 nM.

Consider `CC(C)(C)c1nc2c(s1)CC1(CCN(C(=O)c3ccc4nccc(O)c4c3)CC1)CC2=O` [Example 72], for which the IC50 came to 10000 nM.

Regarding `CNc1nc2ccccc2cc1C(=O)N1CCC2(CC1)CC(=O)c1nc(C(C)(C)C)sc1C2` [Example 74], the concentration for half-maximal inhibition (IC50) is 189 nM.

As for `COc1cc(C(=O)N2CCC3(CC2)CC(=O)c2nc(C(C)(C)C)sc2C3)c2[nH]ncc2c1` [Example 75], the IC50 is 17.6 nM.

Regarding `Cc1cc(C(=O)N2CCC3(CC2)CC(=O)c2nc(C(C)(C)C)sc2C3)cc2ccn(C)c12` [Example 76], the IC50 was 65.4 nM.

Turning to `CNc1nc2ccc(OC)cc2cc1C(=O)N1CCC2(CC1)CC(=O)c1nc(C(C)(C)C)sc1C2` [Example 77], the IC50 stood at 9.4 nM.

For `CC(C)(C)c1nc2c(s1)CC1(CCN(C(=O)c3cc(Cl)c4cc[nH]c4c3)CC1)CC2=O` [Example 78], the IC50 came out at 7.6 nM.

On to `COc1ccc2cc(C(=O)N3CCC4(CC3)CC(=O)c3nc(C(C)(C)C)sc3C4)cc(C)c2n1` [Example 80], for which the IC50 was found to be 109 nM.

Take `Cc1cc(C(=O)N2CCC3(CC2)CC(=O)c2nc(C(C)(C)C)sc2C3)cc2c1ccn2C` [Example 82]: the IC50 stood at 6.1 nM.
